Experimental data from patent publication EP1379634B1 (THE UNIVERSITY OF GEORGIA RESEARCH FOUNDATION, INC., priority 2001, dated 2002).
Residues, ends and D or L forms follow the SMILES beside them. *: point of attachment. AFC = O=c1cc(C(F)(F)F)c2ccc(N*)cc2o1; Cbz = O=C(OCc1ccccc1)*; CH2F = FC*

How the values were obtained:
[1] = system: Trypsin; experiment: Selectivity test (Steps VI and IX), Trypsin; format: biochemical, human; details: pH 8.0, substrate Z-R-AFC
Description: (§1) In order to perform the assay, the vehicle (for Step VI) or inhibitor (for Step IX) were incubated with the appropriate substrate in the correct assay buffer and allowed to equilibrate. Subsequently, the protease was added, and the assay was allowed to incubate for an appropriate time. The concentrations used in this experiment were as follows: Vehicle was set up at 4 X 10^-5 M in final assay buffer; Inhibitor was set up at 3 X 10^-10 M in the final assay buffer. Preferably the dosages employed should be the minimal amount of vehicle or inhibitor necessary to induce inhibition. […] Substrates were set up based upon the preferred substrate for cleavage of the particular enzyme.
(§2) Positive controls were set up similarly as described for test controls, except that a solvent blank was added in substitution for the inhibitor or vehicle (in a volume equal to the volume of inhibitor or vehicle addition). All of the inhibitors and vehicles could be dissolved in dimethylsulfoxide (DMSO), and therefore, this was the solvent of choice. Negative controls were set up by adding the inhibitor or vehicle and the preferred substrates in a tube without the protease. All potential non-proteolytic liberation of AFC was therefore controlled for in this tube.
(§3) All controls were set up in triplicate, and experiments were repeated a minimum of five times.
(§4) Percent inhibition was calculated as: %Inhibition = ((AFC positive for "SI"−AFC negative for "SI")−(AFC test−AFC negative for "SI"))/(AFC positive for "SI"−AFC negative for "SI") × 100 [formula]
(§5) In this preliminary test, we employed the following human-derived enzymes (with indicated mechanistic class in parentheses): Cathepsin B (cysteine), Cathepsin L (cysteine), Cathepsin H (cysteine), Cathepsin D (aspartic), Trypsin (serine), the purified Taenia solium cysteine protease, and the Taenia solium crude mix. Cathepsin B was prepared in an assay buffer of 10 mM L-cysteine in 0.4 M Citrate buffer, pH 6.1, using Z-ARR-AFC as the cleavage substrate. Cathepsin L was prepared in an assay buffer of 10 mM L-cysteine in 0.4 M Citrate buffer, pH 5.5, using Z-FR-AFC as the cleavage substrate. Cathepsin H was prepared in an assay buffer of 10 mM L-cysteine in 0.15 M PBS buffer, pH 6.8, using L-R-AFC as the cleavage substrate. Cathepsin D was prepared in an assay buffer of 0.15 M PBS, pH 7.1, using Z-RGFFP-AFC as the cleavage substrate. Trypsin was prepared in an assay buffer of 0.15 M PBS, pH 8.0, supplemented with 100 mM CaCl2 and with Z-R-AFC as the cleavage substrate. Enzyme was incubated so that it was at least 50 times less than the concentration of substrate in order to insure saturating conditions.

[2] = system: Taenia solium crude mix; experiment: Competitor assay of vehicles against high Vmax substrate cocktails (Step III), crude mix; format: biochemical
Excerpt: Step III for a crude mix proceeds as it would for a purified protease, except that Vm is used instead of kcat.
One of the most intriguing findings in this experiment was that a highly similar inhibition pattern for the competitor assay resulted when the crude mix was employed as the source of the target protease. Although there were some variations in the effects of inhibitor dilution, the most highly ranked vehicles remained inhibitory consistently in comparison to the profile with the target protease. The relative profile and composition of the top tier of vehicles was identical. Z-LLL-AFC, Z-LLY-AFC, Mu-LY-AFC, Boc-VPR-AFC, Z-SY-AFC, Z-RR-AFC, Z-FLF-AFC, and Z-LGR-AFC consistently emerged as the top eight vehicles (Fig. 5b), respectively, based upon their V values (Table 2). […] It was notable that the three vehicles had very similar V values. […] As was mentioned, this vehicle along with Z-LLL-AFC and Z-LLY-AFC, were consistently the most inhibitory vehicles. The V values of the most inhibitory vehicle series are shown below in Table 2. Again, a clear break between the first and second tier vehicles is discernible for the V value. Table 2. Vehicles and V value rankings.

[3] = system: T. solium (cysteine); experiment: Selectivity test (Steps VI and IX), T. solium cysteine protease; format: biochemical, Taenia solium
Description: as §1, §2, §3, §4, §5

Compound | % inhibition ([1]; vehicle 4 X 10^-5 M, 40 µM) [%] | Tier [2] | % inhibition ([3]; vehicle 4 X 10^-5 M) [%] | % inhibition ([1]; inhibitor 3 X 10^-10 M, 0.0003 µM) [%] | % inhibition ([3]; inhibitor 3 X 10^-10 M) [%]
CC(C)C[C@H](NC(=O)OCc1ccccc1)C(=O)N[C@@H](CC(C)C)C(=O)N[C@@H](CC(C)C)C(=O)Nc1ccc2c(C(F)(F)F)cc(=O)oc2c1 [Z-LLL-AFC, Z-Leu-Leu-Leu-AFC] (Cbz-Leu-Leu-Leu-{AFC}) | 0 | 1 (The first tier was composed of those vehicles that produced inhibition greater than 50% when in the presence of the 1.4% cocktail) | 68 |  | 
Mu-Leu-Tyr-AFC [Mu-LY-AFC] | 0 | 1 (The first tier was composed of those vehicles that produced inhibition greater than 50% when in the presence of the 1.4% cocktail) | 75 |  | 
CC(C)C[C@H](NC(=O)OCc1ccccc1)C(=O)N[C@@H](CC(C)C)C(=O)N[C@@H](Cc1ccc(O)cc1)C(=O)CF [Z-LLY-FMK, Z-Leu-Leu-Tyr-FMK] (Cbz-Leu-Leu-Tyr-CH2F) |  |  |  | 0 | 62
CC(C)C[C@H](NC(=O)OCc1ccccc1)C(=O)N[C@@H](CC(C)C)C(=O)N[C@@H](Cc1ccc(O)cc1)C(=O)Nc1ccc2c(C(F)(F)F)cc(=O)oc2c1 [Z-LLY-AFC, Z-Leu-Leu-Tyr-AFC] (Cbz-Leu-Leu-Tyr-{AFC}) | 0 | 1 (The first tier was composed of those vehicles that produced inhibition greater than 50% when in the presence of the 1.4% cocktail) | 70 |  | 
